This is an account of results in patent publication US20230310390A1, “INHIBITORS OF SHORT-CHAIN DEHYDROGENASE ACTIVITY FOR TREATING NEURODEGENERATION” (CASE WESTERN RESERVE UNIVERSITY, priority 2020, published 2023).

Common to all, as to assay type: in vivo
For one assay, the target named is T1, 15-PGDH (Mus musculus, UniProt Q8VCC1).
T1 construct: brain tissue was dissected 3 weeks later for biochemical determination of 15-PGDH enzymatic activity; from tissue; host or cells: mouse brain (forebrain after TBI; whole brain of 5xFAD and WT littermates)
T1 sequence (Q8VCC1 1-269): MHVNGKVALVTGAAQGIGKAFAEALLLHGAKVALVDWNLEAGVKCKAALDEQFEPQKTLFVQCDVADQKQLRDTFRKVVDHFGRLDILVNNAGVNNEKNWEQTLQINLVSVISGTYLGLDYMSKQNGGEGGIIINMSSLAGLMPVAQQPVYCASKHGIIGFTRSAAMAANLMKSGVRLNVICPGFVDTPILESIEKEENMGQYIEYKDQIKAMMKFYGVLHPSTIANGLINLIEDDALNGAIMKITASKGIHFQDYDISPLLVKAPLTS
Nature of the assay: 15-PGDH activity in whole brain of 5×FAD and WT mice. The following applies: 5 mg/kg/day twice daily from 2 to 6 months of age. On the procedure:
(A) 8 week old 15-PGDH wild-type (Hpgd^+/+) and 15-PGDH knockout (Hpgd^−/−) mice were subjected to TBI, and brain tissue was dissected 2 weeks later for western blot. […] Individual human data points are shown on the graph. Data was analyzed with Student's t test. * p<0.05. All data is mean±SEM. (C) Hpgd^+/+ mice were subjected to TBI at 8 weeks of age and then brain tissue was dissected 3 weeks later for biochemical determination of 15-PGDH enzymatic activity. […] Individual mouse data points are shown on the graph. Data was analyzed with Student's t test. ** p<0.01, **** p<0.0001. All data is mean±SEM. (D) 5×FAD mice and wild type littermates (WT) were administered either 5 mg/kg/day (+)-SW033291 twice daily (or vehicle) from 2 to 6 months of age, and then brains were dissected for biochemical assessment of 15-PGDH activity. […] Individual mouse data points are shown on the graph. Data was analyzed using two-way repeated measures ANOVA; * p<0.05, ** p<0.01, *** p<0.001. All data is mean±SEM.

For assay [1], the system named is 5×FAD mice. The experiment in a line: Amyloid plaque accumulation (Congo Red staining). To be noted: 5 mg/kg/day twice daily from 2 to 6 months. The procedure:
(§1) Two month old 5×FAD and wild type (WT) littermates were treated with 5 mg/kg/day twice daily (+)-SW033291 (or vehicle) every day from 2 to 6 months. At 5 months of age, mice were injected with a single dose of 150 mg/kg bromodeoxyuridine (BrdU) to label replicating cells. At the age of 6 months (28 days after BrdU) mice were transcardially perfused and brains were dissected for examination of fixed tissue. […] Individual mouse data points are shown on the graph. Data was analyzed using two-way repeated measures ANOVA; * p<0.05, ** p<0.01, ***p<0.001, ****p<0.0001. All data is mean±SEM.

Assay [2] relates to 5×FAD mice. Nature of the assay: Morris water maze in 5×FAD mice. To be noted: 5 mg/kg/day twice daily from 2 to 6 months. The procedure: (A) Experimental Timeline: Two month old 5×FAD and wild type (WT) littermates were treated with 5 mg/kg/day twice daily (+)-SW033291 (or vehicle) every day from 2 to 6 months. Cognitive performance was tested using Morris water maze (MWM) as shown in the timeline. (B) Animals were trained to find the hidden platform in the MWM maze for 3 consecutive days (4 trials/day), and latency to find the hidden platform was measured. […] (C) To probe for spatial memory of the hidden platform, one day after the last learning day the animals were tested in the same MWM, except the platform was removed. Memory was measured as latency to first cross the area where the platform was located and the number of times an animal crossed that area. […] Individual mouse data points are shown on the graph. Data was analyzed using two-way repeated measures ANOVA; * p<0.05, ** p<0.01, *** p<0.001. All data is mean±SEM.

Assay [3] relates to eicosanoids. Nature of the assay: Eicosanoid profiling by LC-MS/MS, right brain hemisphere of wild-type and 5×FAD mice. The following applies: 5 mk/kg twice daily for 4 weeks. The procedure: (§2) Eicosanoids were measured by methods of liquid chromatography with tandem mass spectrometry with the use of spiked in deuterated internal standards. Eicosanoids measured included: the 6-keto-PGF1 alpha (6-keto-PGF1a, a hydrolysis product of and proxy for prostacyclin), thromboxane B2 (TXB2, a metabolite/product of and proxy for thromboxane A2), PGD2, PGE2, 15-keto-PGE2 (produced by 15-PGDH degradation of PGE2), tetranor PGE1 (TN-E, a metabolic product produced by beta-oxidation of PGE2), PGJ2, PGF2 alpha (PGF2a), LTB4, 15-HETE, 12-HETE, 8-HETE, 5-HETE, 17-HDHA, 12,13-DiHOME, 14,15-DHET, 11,12-DHET.
(§3) FIG. 3 illustrates graphs showing comparison of eicosanoid values in brain of 6 month old male mice that are either wild-type or that are the 5×FAD strain of mice that model Alzheimer's disease. Beginning at 5 months of age both genotypes of mice were injected twice daily with either 5 mk/kg (+)-SW033291 or with matched vehicle control as described in Zhang et al. Science. 2015; 348(6240):aaa2340. PMCID: PMC4481126. Treatment continued twice daily for 4 weeks. Mice were sacrificed at 3 hours following their final injection. After sacrifice the right hemisphere of the brain was dissected, flash frozen, and powdered, and eicosanoids were extracted in aqueous buffer for analysis. Protein concentration of the extracts were assayed, and eicosanoid values were recorded as ng eicosanoid per mg protein.

The test system of assay [4] is eicosanoids. The experiment in a line: Eicosanoid profiling by LC-MS/MS, left hippocampus of wild-type and 5×FAD mice. To be noted: 5 mk/kg twice daily for 4 weeks. The procedure: as §2
as §3, with “FIG. 2” for “FIG. 3”, “the left hippocampus” for “the right hemisphere of the brain”

The test system of assay [5] is 5×FAD and wild type (WT) mice. The experiment in a line: BrdU staining, survival of newborn hippocampal neurons. The following applies: 5 mg/kg/day twice daily from 2 to 6 months; for survival of newborn hippocampal neurons (BrdU): 28 days after BrdU. On the procedure:
as §1

Setting [6] is: 5×FAD mice, versus vehicle control treated 5×FAD mice.
Setting [7] is: wild-type mice, compared to vehicle treated wild-type mice.

“Also recorded” adds a separate entry of the source.

For `CCCC[S+]([O-])c1sc2nc(-c3cccs3)cc(-c3ccccc3)c2c1N` (single isomer, unassigned; (+)) [(+)-SW033291], the “15-PGDH activity in the whole brain” value at 15-PGDH (5×FAD mice, compared to 5×FAD vehicle, 5 mg/kg/day) was “significantly lowered 15-PGDH activity in the whole brain; also recorded: returned to normal”; on 15-PGDH (WT mice, compared to WT vehicle) it was “significantly lowered 15-PGDH activity in the whole brain”. Further, in the assay with 5×FAD mice [1], the “amyloid plaque accumulation (Congo Red staining)” value is listed as “does not alter amyloid plaque accumulation; also recorded: does not affect accumulation of amyloid plaque”. The “average (escape) latency to find the hidden platform (learning)” value with 5×FAD mice [2] (5×FAD and WT mice, 3 consecutive days) was “not different between groups”. Further, the “memory deficit / cognitive function (MWM probe)” value in the assay with 5×FAD mice [2] (5×FAD mice, 5 mg/kg/day) is on record as “alleviated this deficit”; with 5×FAD mice [2] (5×FAD mice, listed as (+)-SW033921, 5 mg/kg/day) it was “protects cognitive function in 5×FAD mice”. For the same compound, the “number of platform crosses” value with 5×FAD mice [2] (MWM probe test, 5×FAD mice) is recorded as “significantly decreased in the vehicle-treated 5×FAD group compared to the other groups”. Also, the “eicosanoid values in right hemisphere of the brain (trends)” value is “a trend to increased 15-keto-PGE2, TN-E, PGF2a, 12,13-DiHOME, and 11,12-DHET” in the assay on eicosanoids [3] (setting [6]); “a trend to increased TXB2, PGD2, 15-keto-PGE2, TN-E, PGJ2, PGF2a, LTB4, 15-HETE, 12-HETE, 8-HETE, 17-HDHA, 9,10-DiHOME, 14,15-DHET” with eicosanoids [3] (setting [7]). For the same compound, the “6-keto-PGF1a, PGE2 in right hemisphere of the brain” value with eicosanoids [3] (setting [7]) is on record as “significant increase in 6-keto-PGF1a, PGE2”. Besides, the “TXB2 in left hippocampus” value in the assay with eicosanoids [4] (setting [6]) was “significant increase in TXB2”. The “eicosanoid values in left hippocampus (trends)” value was “a trend to increased 6-keto-PGF1a, PGD2, PGE2, PGJ2, PGF2a” with eicosanoids [4] (setting [6]); “trends for increases in 6-keto-PGF1a, PGD2, PGE2, PGF2a, and 9,10-DiHOME” with eicosanoids [4] (wild-type mice, versus vehicle treated mice). Further, the “survival of young hippocampal neurons relative to WT-vehicle mice” value in assay [5] (5×FAD mice) is recorded as “comparable extent as WT-vehicle mice”. Besides, the “survival of newborn hippocampal neurons (BrdU)” value in assay [5] (5×FAD mice, 5 mg/kg/day) is “augments the survival of newborn hippocampal neurons”; in assay [5] (WT mice), “augments the survival of newborn hippocampal neurons”.
